Legend:
[1] = test system: subcutaneous B16.F10 tumors in C57Bl/6 mice or K1735 tumors in C3H mice; assay: In vivo tumor growth and survival, i.t. RV and i.p. CP alone or in combination; parameters: species or system mouse; settings: treated days 1 and 4, tumor model not stated
Method: C57Bl/6 (FIGS. 1A and 1C) and C3H (FIGS. 1B and 1D) mice bearing subcutaneous B16.F10 and K1735 tumors, respectively, were treated on days 1 and 4 with either reovirus alone via intratumoral (i.t.) injection (squares), cisplatin alone via intraperitoneal (i.p.) administration (triangles), or reovirus and cisplatin in combination (circles). Control treated mice (diamonds) received PBS. Tumors were measured on the days indicated and tumor volume expressed as tumor volume relative to volume at commencement of treatment (FIGS. 1A and 1B). Mice were euthanized when tumors exceeded 15 mm in any one dimension. Survival is expressed as Kaplan-Myer plots (FIGS. 1C and 1D).
(§1) For in vivo evaluation, subcutaneous B16.F10 tumors in C57Bl/6 mice or K1735 tumors in C3H mice were treated with intratumoral (i.t.) RV and intraperitoneal (i.p.) CP either alone or in combination. Tumor volume was estimated thrice weekly. […] Tumors were measured on the days indicated and tumor volume expressed as tumor volume relative to volume at commencement of treatment (FIGS. 1A and 1B). […] Survival is expressed as Kaplan-Myer plots (FIGS. 1C and 1D). […] In contrast live virus was detected in only 50% of tumors from combination treated mice but in the liver of 4/6 mice.

[2] = test system: proinflammatory cytokines (IL-1I, IL-3, IL-6, IL-12, IL-17, MIP-1I, RANTES); assay: Pro-inflammatory cytokine production in serum; assay type: in vivo, mouse; settings: CP used in combination with RV
Method: FIGS. 3A, 3B, 3C, 3D, 3E, 3F, and 3G are graphs showing pro-inflammatory cytokine response is abrogated by cisplatin. The response of IL-1I (FIG. 3A), IL-3 (FIG. 3B), IL-6 (FIG. 3C), IL-12 (FIG. 3D), IL-17 (FIG. 3E), MIP-1I (FIG. 3F) and RANTES (FIG. 3G) were measured after no treatment (control) or treatment with reovirus, cisplatin or the combination of reovirus and cisplatin.
as §1, with “weekly. Tumors and organs were harvested post-treatment for viral retrieval and histology; serum samples were tested for cytokine production and induction of neutralising anti-reovirus antibody (NARA).” for “weekly.”

[3] = test system: neutralizing anti-reovirus antibody (NARA); assay: Neutralising anti-reovirus antibody (NARA) response in serum; assay type: in vivo, mouse; settings: CP used in combination with RV
Method: FIG. 2 is a graph showing the neutralizing anti-reovirus antibody (NARA) response after no treatment (control) or treatment with reovirus, cisplatin or the combination of reovirus and cisplatin.
For in vivo evaluation, subcutaneous B16.F10 tumors in C57Bl/6 mice or K1735 tumors in C3H mice were treated with intratumoral (i.t.) RV and intraperitoneal (i.p.) CP either alone or in combination. Tumor volume was estimated thrice weekly. Tumors and organs were harvested post-treatment for viral retrieval and histology; serum samples were tested for cytokine production and induction of neutralising anti-reovirus antibody (NARA). […] C57Bl/6 (FIGS. 1A and 1C) and C3H (FIGS. 1B and 1D) mice bearing subcutaneous B16.F10 and K1735 tumors respectively were treated on days 1 and 4 with either reovirus alone i.t. (squares), cisplatin alone i.p. (triangles), or reovirus and cisplatin in combination (circles). Control treated mice (diamonds) received PBS. Tumors were measured on the days indicated and tumor volume expressed as tumor volume relative to volume at commencement of treatment (FIGS. 1A and 1B). Mice were euthanized when tumors exceeded 15 mm in any one dimension. Survival is expressed as Kaplan-Myer plots (FIGS. 1C and 1D). […] In contrast live virus was detected in only 50% of tumors from combination treated mice but in the liver of 4/6 mice.

Q: Which results are given for `N.N.[Cl][Pt][Cl]` [CP, cisplatin]?
A: Mean relative tumor volumes ±SD ([1]; day 12, volume relative to commencement of treatment): 9.87±2.80; Median survival ([1]; euthanized when tumors exceeded 15 mm): 8 days; production of proinflammatory cytokines to RV [2]: marked attenuation; neutralizing anti-reovirus antibody (NARA) response to RV [3]: did not affect

Source: patent publication US20130243732A1, “ABROGATING PROINFLAMMATORY CYTOKINE PRODUCTION DURING ONCOLYTIC REOVIRUS THERAPY” ([…] INC., priority 2008, published 2013)
